Values quoted from earlier work in patent publication US20250288585A1, “SYNERGISTIC COMPOSITIONS FOR ENHANCED HAIR GROWTH AND METHODS FOR TREATING HAIR LOSS” (The Johns Hopkins University, priority 2024, published 2025).

What was measured:
[1] = liposomal hydrogel system
[2] = tested on: subjects with androgenetic alopecia; conditions: topical tretinoin alone
[3] = tested on: follicular sulfotransferase; conditions: topical 0.1% tretinoin, plucked hairs, in vitro

| permeation through skin ex vivo [1] | Compound | subjects with some hair regrowth [2] | effect on expression of follicular sulfotransferase [3] |
| --- | --- | --- | --- |
| enhanced the permeation | Nc1cc(N2CCCCC2)nc(N)[n+]1[O-] [minoxidil] |  |  |
| retained on the skin | CC1=C(/C=C/C(C)=C/C=C/C(C)=C/C(=O)O)C(C)(C)CCC1 [tretinoin, all-trans-retinoic acid] | approximately 58% | influences the expression of follicular sulfotransferase |
